Experiments:
[1] = system: calcineurin pathway
From the text: In this example, the expression of a number of genes are monitored as a wild type yeast culture is subjected to a graded levels of the drug FK506 (FIG. 8A). Similar experiments are repeated with a yeast culture whose CNA1 and CNA2 genes are deleted (FIG. 8B). CNA1 and CNA2 are two components of the calcineurin multi-protein complex. Because the drug FK506 acts upon the calcineurin protein to exert its activity on the calcineurin pathway. Deletion of CNA1 and CNA2 eliminates the primary target pathway for FK506. […]
Control cultures were treated with the same volume of just ethanol. Growth was monitored by OD600 and cells were harvested at OD600=1.4+/−0.1 by centrifugation for 2 min at ambient temperature in a Sorvall RC5C+ centrifuge in a SLA-1500 rotor. […]
Extent of hybridization was determined by scanning with a prototype multi-frame CCD camera slides produced by Applied Precision, Inc. Images were processed by informatics and imported into the Inpharna database and analyzed using the MatLab data analysis package.
The horizontal axis is concentrations of the FK506 in logarithmic scale and the vertical axis is the values of the logarithm of the expression ratio of the genes most affected by FK506 on the vertical axis. […] P-Value is the probability that the up or down regulation is due to measurement error, as determined from observed statistics of the errors in Log 10 (expression ratio).

[2] = system: off-target genes; test: Transcriptional response to FK506 titration in yeast strain with CNA1 and CNA2 deleted; format: cell-based, S. cerevisiae
From the text: The response of those genes to FK506 were considered as off-target activity. Each ORF (Open Reading Frame) may be corresponding to an off-target gene.

[3] = system: yeast gene YOL031C; test: Yeast gene expression response to methotrexate exposure, Hill function fit; format: cell-based, S. cerevisiae; details: least squares fit
From the text: FIG. 4 illustrates the fit of a Hill function to the response of gene YOL031C illustrated in FIG. 3.
[formula] The adjustable parameters are selected independently for each cellular constituent of the drug response and for each cellular constituent of the pathway response. Preferably, the adjustable parameters are selected so that for each cellular constituent of each pathway response the sum of the squares of the distances of H(pi,l) from Ri,l(Pi,l) is minimized, and so that for each cellular constituent of the drug response the sum of the squares of the distances of H(tl) from Dk(tl) is minimized. This preferable parameter adjustment method is known in the art as a least squares fit of H( ) to Ri,k( ) or to Dk( ). Other possible model functions are based on polynomial fitting, for example by various known classes of polynomials.
Model fitting with a Hill function is illustrated with respect to FIGS. 3 and 4. As discussed, FIG. 3 illustrates an example of a pathway perturbed by methotrexate and identified by measurement. This figure illustrates the mRNA expression levels of 30 genes of the yeast S. cerevisiae that, of the approximately 6000 genes in the genome of this yeast, had the largest expression changes in response to six different exposure levels of methotrexate. FIG. 4 illustrates a fit of the pathway response of one of these gene expression levels by a Hill function. In particular, the yeast gene YOL031C was fit by a Hill function with parameters n=2, a=−0.61, and log10 (u0)=1.26 selected by the previously described least squares method.

[4] = system: yeast; test: Growth of yeast under methotrexate titration; format: cell-based, S. cerevisiae; details: 100 μM titration

`C=CC[C@@H]1/C=C(\C)C[C@H](C)C[C@H](OC)[C@H]2O[C@@](O)(C(=O)C(=O)N3CCCC[C@H]3C(=O)O[C@H](/C(C)=C/[C@@H]3CC[C@@H](O)[C@H](OC)C3)[C@H](C)[C@@H](O)CC1=O)[C@H](C)C[C@@H]2OC` [FK506] was tested, and the “concentration at which expression of most genes affected via the primary target (calcineurin pathway) reaches two fold induction or repression” value [1] was 200 ng/mL, the “concentration at which expression of most off-target genes reaches two fold induction or repression” value [1] was 12000 ng/mL and the “Log10(Ratio)” value ([2]; ORF ARG1, deletion strain) was 0.9516. The “Log10(Ratio)” value ([2]; ORF ARG4, deletion strain) was 0.7774, the “Log10(Ratio)” value ([2]; ORF ARG5, 6, deletion strain) was 0.9136 and the “Log10(Ratio)” value ([2]; ORF ARO3, deletion strain) was 0.6261. For the same compound, the “Log10(Ratio)” value ([2]; ORF CPA1, deletion strain) was 0.5645, the “Log10(Ratio)” value ([2]; ORF CPA2, deletion strain) was 0.645 and the “Log10(Ratio)” value ([2]; ORF ECM13, deletion strain) was 0.8176. The “Log10(Ratio)” value ([2]; ORF GRE2, deletion strain) was 0.6836, the “Log10(Ratio)” value ([2]; ORF HIS3, deletion strain) was 0.6152 and the “Log10(Ratio)” value ([2]; ORF HIS4, deletion strain) was 0.8178. For the same compound, the “Log10(Ratio)” value ([2]; ORF HIS5, deletion strain) was 0.8266, the “Log10(Ratio)” value ([2]; ORF NCE3, deletion strain) was 0.5112 and the “Log10(Ratio)” value ([2]; ORF PDR5, deletion strain) was 0.597. For the same compound, the “Log10(Ratio)” value ([2]; ORF RIB5, deletion strain) was 0.7436, the “Log10(Ratio)” value ([2]; ORF SNO1, deletion strain) was 0.7711 and the “Log10(Ratio)” value ([2]; ORF SNQ2, deletion strain) was 0.6624. The “Log10(Ratio)” value ([2]; ORF SNZ1, deletion strain) was 0.9834, the “Log10(Ratio)” value ([2]; ORF YER175C, deletion strain) was 1.0121 and the “Log10(Ratio)” value ([2]; ORF YGL117W, deletion strain) was 0.8608. For the same compound, the “Log10(Ratio)” value ([2]; ORF YHM1, deletion strain) was 0.5235, the “Log10(Ratio)” value ([2]; ORF YMR085W, deletion strain) was 0.7679 and the “Log10(Ratio)” value ([2]; ORF YMR097C, deletion strain) was 0.6945. For the same compound, the “Log10(Ratio)” value ([2]; ORF YOL150C, deletion strain) was 0.7246, the “Log10(Ratio)” value ([2]; ORF YOR1, deletion strain) was 0.5928 and the “Log10(Ratio)” value ([2]; ORF YOR203W, deletion strain) was 0.6378. The “Log10(Ratio)” value ([2]; ORF YPL088W, deletion strain) was 0.4764 and the “toxic concentration: off-target transcriptional responses of many genes reach two-fold induction or repression” value ([2]; by inspection of FIG. 8B, calcineurin-deleted strain) was “approximately 12 mg/ml”.

With `CN(Cc1cnc2nc(N)nc(N)c2n1)c1ccc(C(=O)N[C@@H](CCC(=O)O)C(=O)O)cc1` [methotrexate] the “Hill function parameter a” value [3] was −0.61, the “Hill function parameter n” value [3] was 2 and the “Hill function parameter log10 (u0)” value ([3]; exposure levels in μM) was 1.26. The growth defect [4] was 50%.

— patent publication US8560243B2, “Methods for determining therapeutic index from gene expression profiles” (Microsoft Corporation, priority 1998, dated 2013)
